Test system: GABAA-benzodiazepine receptor
Assay: Sleep-improving mechanism: pentobarbital sleep test with GABAA-benzodiazepine antagonist flumazenil (FLU)
Format: in vivo
Conditions: mouse; FLU 8 mg/kg i.p. 10 min before sample p.o. (DZP 0.5 mg/kg; BEE 500 mg/kg); pentobarbital 45 mg/kg 45 min later

Compound: CN1C(=O)CN=C(c2ccccc2)c2cc(Cl)ccc21 [DZP, diazepam]
- effect of flumazenil (FLU) on the sleep-improving effect (sleep latency, sleep duration): had an effect
